Test results reported in ChEMBL document CHEMBL6092141, “Discovery of a proteolysis targeting chimera (PROTAC) as a potent regulator of FOXP3” (2024).
One block for each molecule: values may come before it. The source made the active and inactive calls. The rule behind the calls is not given here. Residues, ends and D or L forms follow the SMILES beside them. *: point of attachment. X1 = Cc1ncsc1-c1ccc(CNC(=O)[C@@H]2C[C@@H](O)CN2C(=O)[C@@H](NC(=O)COCCOCCNC(=O)CCCCCc2cn(CCCC(=O)*)nn2)C(C)(C)C)cc1; X2 = Cc1ncsc1-c1ccc(CNC(=O)[C@@H]2C[C@@H](O)CN2C(=O)[C@@H](NC(=O)CCOCCOCCc2cn(CCCC(=O)*)nn2)C(C)(C)C)cc1; X3 = Cc1ncsc1-c1ccc(CNC(=O)[C@@H]2C[C@@H](O)CN2C(=O)[C@@H](NC(=O)CCCCCc2cn(CCCC(=O)*)nn2)C(C)(C)C)cc1

Key:
[1] = Immunomodulatory activity in anti-CD3/CD28-induced C57BL/6 mouse CD4+ T cells isolated from spleen/lymph nodes assessed as reduction in foxp3+ CD4+ IL2/TGF-beta induced T regulatory cells at 3 uM incubated for 72 hrs by fluorescence activated cell sorting analysis (reference value: 32.7 %); format: functional; set-up: scale not given: the % may be the effect or the level left
[2] = system: HeLa; assay: Inhibition of HA-tagged Foxp3 (unknown origin) nuclear translocation transfected in human HeLa cells at 1 uM incubated for 24 hrs by DAPI staining based confocal microscopic analysis; format: cell-based
[3] = system: CD4+ T cell; assay: Immunomodulatory activity in anti-CD3/CD28-induced C57BL/6 mouse CD4+ T cells isolated from spleen/lymph nodes assessed as increase in IL2 mRNA expression in IL2/TGF-beta induced T regulatory cells measured after 72 hrs by RT-qPCR analysis; format: functional, cell-based
[4] = Immunomodulatory activity in anti-CD3/CD28-induced C57BL/6 mouse CD4+ T cells isolated from spleen/lymph nodes assessed as reduction in foxp3+ CD4+ IL2/TGF-beta induced T regulatory cells at 1 uM incubated for 48 hrs by fluorescence activated cell sorting analysis (reference value: 6.56 %); format: functional; set-up: scale not given: the % may be the effect or the level left
[5] = molecular target: T1, von Hippel-Lindau disease tumor suppressor/Forkhead box protein P3 (Homo sapiens) (UniProt P40337+Q9BZS1); assay: PROTAC activity at VHL/Foxp3 (unknown origin) transfected in HEK293T cells assessed as induction of Foxp3 degradation by measuring reduction in protein level at 1 uM measured after 24 to 48 hrs by Western blot analysis; format: cell-based; settings: time 24-48 hrs
T1 sequence (P40337 whole entry, looked up): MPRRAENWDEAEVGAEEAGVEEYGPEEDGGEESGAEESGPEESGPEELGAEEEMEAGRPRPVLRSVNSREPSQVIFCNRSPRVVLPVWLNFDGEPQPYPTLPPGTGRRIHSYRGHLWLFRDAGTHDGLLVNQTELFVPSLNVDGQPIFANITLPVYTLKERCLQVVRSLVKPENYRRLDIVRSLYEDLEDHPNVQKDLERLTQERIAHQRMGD
T1 sequence (Q9BZS1 whole entry, looked up): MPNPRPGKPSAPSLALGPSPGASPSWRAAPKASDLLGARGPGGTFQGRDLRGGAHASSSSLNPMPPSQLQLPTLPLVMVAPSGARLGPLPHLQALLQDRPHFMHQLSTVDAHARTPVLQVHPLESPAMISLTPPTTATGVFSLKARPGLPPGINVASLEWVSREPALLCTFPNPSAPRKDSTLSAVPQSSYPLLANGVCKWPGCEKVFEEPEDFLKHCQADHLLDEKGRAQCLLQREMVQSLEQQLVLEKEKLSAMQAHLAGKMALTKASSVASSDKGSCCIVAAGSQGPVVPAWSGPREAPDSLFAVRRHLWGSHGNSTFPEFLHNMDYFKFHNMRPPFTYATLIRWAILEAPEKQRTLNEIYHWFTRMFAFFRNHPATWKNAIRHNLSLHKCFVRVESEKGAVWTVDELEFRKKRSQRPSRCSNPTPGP

[6] = Immunomodulatory activity in anti-CD3/CD28-induced C57BL/6 mouse CD4+ T cells isolated from spleen/lymph nodes assessed as reduction in foxp3+ CD4+ IL2/TGF-beta induced T regulatory cells at 1 uM incubated for 72 hrs by fluorescence activated cell sorting analysis (reference value: 32.7 %); format: functional; set-up: scale not given: the % may be the effect or the level left
[7] = molecular target: T1, von Hippel-Lindau disease tumor suppressor/Forkhead box protein P3 (Homo sapiens); assay: PROTAC activity at VHL/Foxp3 (unknown origin) transfected in HEK293T cells assessed as induction of Foxp3 degradation by measuring reduction in protein level at 500 to 1000 nM incubated for 24 hrs by Western blot analysis; format: cell-based; settings: dose 500-1000 nM
[8] = system: CD4+ T cell; assay: Immunomodulatory activity in anti-CD3/CD28-induced C57BL/6 mouse CD4+ T cells isolated from spleen/lymph nodes assessed as reduction in Foxp3 protein expression in IL2/TGF-beta induced T regulatory cells at 1 to 4 uM measured after 72 hrs by Western blot analysis; format: functional, cell-based; settings: dose 1-4 µM
[9] = Immunomodulatory activity in anti-CD3/CD28-induced C57BL/6 mouse CD4+ T cells isolated from spleen/lymph nodes assessed as reduction in foxp3+ CD4+ IL2/TGF-beta induced T regulatory cells at 4 uM incubated for 48 hrs by fluorescence activated cell sorting analysis (reference value: 6.56 %); format: functional; set-up: scale not given: the % may be the effect or the level left
[10] = molecular target: T1, von Hippel-Lindau disease tumor suppressor/Forkhead box protein P3 (Homo sapiens); assay: PROTAC activity at VHL/Foxp3 (unknown origin) transfected in HEK293T cells assessed as induction of Foxp3 degradation by measuring reduction in protein level at 3 uM incubated for 48 hrs in presence of MG132 by Western blot analysis; format: cell-based
[11] = system: CD4+ T cell; assay: Immunomodulatory activity in anti-CD3/CD28-induced C57BL/6 mouse CD4+ T cells isolated from spleen/lymph nodes assessed as increase in IFN-gamma mRNA expression in IL2/TGF-beta induced T regulatory cells measured after 72 hrs by RT-qPCR analysis; format: functional, cell-based
[12] = Immunomodulatory activity in anti-CD3/CD28-induced C57BL/6 mouse CD4+ T cells isolated from spleen/lymph nodes assessed as reduction in foxp3+ CD4+ IL2/TGF-beta induced T regulatory cells at 4 uM incubated for 72 hrs by fluorescence activated cell sorting analysis (reference value: 32.7 %); format: functional; set-up: scale not given: the % may be the effect or the level left
[13] = system: CD4+ T cell; assay: Immunomodulatory activity in anti-CD3/CD28-induced C57BL/6 mouse CD4+ T cells isolated from spleen/lymph nodes assessed as reduction in Foxp3 mRNA expression in IL2/TGF-beta induced T regulatory cells measured after 72 hrs by RT-qPCR analysis; format: functional, cell-based
[14] = system: HEK293T; assay: Inhibition of HA-tagged Foxp3 (unknown origin) nuclear translocation transfected in a HEK293T cells at 1 to 3 uM incubated for 24 hrs by DAPI staining based confocal microscopic analysis; format: cell-based; settings: Homo sapiens, dose 1-3 µM
[15] = Immunomodulatory activity in anti-CD3/CD28-induced C57BL/6 mouse CD4+ T cells isolated from spleen/lymph nodes assessed as reduction in foxp3+ CD4+ IL2/TGF-beta induced T regulatory cells at 2 uM incubated for 72 hrs by fluorescence activated cell sorting analysis (reference value: 32.7 %); format: functional; set-up: scale not given: the % may be the effect or the level left
[16] = Immunomodulatory activity in anti-CD3/CD28-induced C57BL/6 mouse CD4+ T cells isolated from spleen/lymph nodes assessed as reduction in foxp3+ CD4+ IL2/TGF-beta induced T regulatory cells at 2 uM incubated for 48 hrs by fluorescence activated cell sorting analysis (reference value: 6.56 %); format: functional; set-up: scale not given: the % may be the effect or the level left
[17] = molecular target: T1, von Hippel-Lindau disease tumor suppressor/Forkhead box protein P3 (Homo sapiens); assay: PROTAC activity at VHL/Foxp3 (unknown origin) transfected in HEK293T cells assessed as induction of Foxp3 degradation by measuring reduction in protein level at 10 to 1000 nM incubated for 24 hrs by Western blot analysis; format: cell-based; settings: dose 10-1000 nM
[18] = system: HEK293T; assay: Inhibition of HA-tagged Foxp3 (unknown origin) nuclear translocation transfected in a HEK293T cells at 50 to 100 uM incubated for 24 hrs by DAPI staining based confocal microscopic analysis; format: cell-based; settings: Homo sapiens, dose 50-100 µM

Activity [5]: Active | Activity [7]: Active | Activity [10]: inactive
Molecule: CSCC[C@H](NC(=O)[C@H](C)NC(=O)[C@H](Cc1ccccc1)NC(=O)[C@H](Cc1ccccc1)NC(=O)[C@@H]1CCCN1C(=O)[C@H](Cc1c[nH]c2ccccc12)NC(=O)[C@H](CCSC)NC(=O)[C@H](CCCCN)NC(=O)[C@H](CCCNC(=N)N)NC(=O)[C@H](Cc1ccccc1)NC(=O)[C@H](CO)NC(=O)[C@H](CCC(N)=O)NC(=O)[C@H](Cc1ccccc1)NC(=O)[C@H](CC(=O)O)NC(=O)[C@H](CCCNC(=N)N)NC(=O)CCCn1cc(CCCCCC(=O)NCCOCCOCC(=O)N[C@H](C(=O)N2C[C@H](O)C[C@H]2C(=O)NCc2ccc(-c3scnc3C)cc2)C(C)(C)C)nn1)C(N)=O (X1-RDFQSFRKMWPFFAM-NH2)
Activity [1]: 20.2% | inhibition [2]: Active | Activity [3]: Active | Activity [4]: 6.08% | Activity [6]: 28.8% | Activity [8]: Active | Activity [9]: 4.87% | Activity [11]: Active | Activity [12]: 15.6% | Activity [13]: Active | inhibition [14]: Active; Comparable Effect To 100 Um Of P60 Peptide Observed At 1 Um | Activity [15]: 25.8% | Activity [16]: 5.03%

Activity [17]: inactive
Molecule: CSCC[C@H](NC(=O)[C@H](C)NC(=O)[C@H](Cc1ccccc1)NC(=O)[C@H](Cc1ccccc1)NC(=O)[C@@H]1CCCN1C(=O)[C@H](Cc1c[nH]c2ccccc12)NC(=O)[C@H](CCSC)NC(=O)[C@H](CCCCN)NC(=O)[C@H](CCCNC(=N)N)NC(=O)[C@H](Cc1ccccc1)NC(=O)[C@H](CO)NC(=O)[C@H](CCC(N)=O)NC(=O)[C@H](Cc1ccccc1)NC(=O)[C@H](CC(=O)O)NC(=O)[C@H](CCCNC(=N)N)NC(=O)CCCn1cc(CCOCCOCCC(=O)N[C@H](C(=O)N2C[C@H](O)C[C@H]2C(=O)NCc2ccc(-c3scnc3C)cc2)C(C)(C)C)nn1)C(N)=O (X2-RDFQSFRKMWPFFAM-NH2)
inhibition [2]: inactive

Activity [17]: inactive
Molecule: CSCC[C@H](NC(=O)[C@H](C)NC(=O)[C@H](Cc1ccccc1)NC(=O)[C@H](Cc1ccccc1)NC(=O)[C@@H]1CCCN1C(=O)[C@H](Cc1c[nH]c2ccccc12)NC(=O)[C@H](CCSC)NC(=O)[C@H](CCCCN)NC(=O)[C@H](CCCNC(=N)N)NC(=O)[C@H](Cc1ccccc1)NC(=O)[C@H](CO)NC(=O)[C@H](CCC(N)=O)NC(=O)[C@H](Cc1ccccc1)NC(=O)[C@H](CC(=O)O)NC(=O)[C@H](CCCNC(=N)N)NC(=O)CCCn1cc(CCCCCC(=O)N[C@H](C(=O)N2C[C@H](O)C[C@H]2C(=O)NCc2ccc(-c3scnc3C)cc2)C(C)(C)C)nn1)C(N)=O (X3-RDFQSFRKMWPFFAM-NH2)
inhibition [2]: inactive

Molecule: H-RDFQSFRKMWPFFAM-OH
inhibition [18]: Active
